Test results as given in patent US8268781B2.
Where two headings read alike, the source gives them in different places.

Assay: Ex vivo bio-distribution studies
Conditions: In-111 labeled, 555 kBq tail vein, mean of 4 mice; for tissue uptake at 1 h / tissue uptake at 4 h / tissue uptake at 24 h: mouse, iv, total radioactivity; for tissue uptake at 1 h: 1 h p.i.
Procedure: The in vivo bio-distribution can, for example, be shown in rodents such as hairless mice. For this purpose […] CHO cells are injected into hairless mice. After approx. 3 to 5 weeks tumors approx. 300 mg in size had grown.
1, 4 und 24 h p.i. all the mice are killed and their organs removed.
The uptake of radioactivity is measured and the organs are weighed. The % of injected dose program of organ weight is calculated.
Mean value from the bio-distribution with 4 mice pro group in % i.D./g Stadev: standard deviation.

CC[C@H](C)[C@H](NC(=O)[C@H](Cc1ccccc1)NC(=O)[C@H](CCC(=O)O)NC(=O)[C@H](CCCCN)NC(=O)[C@H](C)NC(=O)[C@H](C)NC(=O)[C@H](CCC(N)=O)NC(=O)CNC(=O)[C@H](CCC(=O)O)NC(=O)[C@H](CC(C)C)NC(=O)[C@H](Cc1ccc(O)cc1)NC(=O)[C@H](CO)NC(=O)[C@H](CO)NC(=O)[C@@H](NC(=O)[C@H](CC(=O)O)NC(=O)[C@H](CO)NC(=O)[C@@H](NC(=O)[C@H](Cc1ccccc1)NC(=O)[C@@H](NC(=O)CNC(=O)[C@H](CCC(=O)O)NC(=O)[C@H](C)NC(=O)[C@@H](N)Cc1c[nH]cn1)[C@@H](C)O)[C@@H](C)O)C(C)C)C(=O)N[C@@H](C)C(=O)N[C@@H](Cc1c[nH]c2ccccc12)C(=O)N[C@@H](CC(C)C)C(=O)N[C@H](C(=O)N[C@@H](CCCCN)C(=O)NCC(=O)N[C@@H](CCCNC(=N)N)C(=O)N[C@@H](CCCCNC(=O)CN(CCN(CCN(CC(=O)O)CC(=O)O)CC(=O)O)CC(=O)O)C(N)=O)C(C)C [MC10, (DTPA-Lys^37) GLP1 (7-36) amide]
Uptake in Blood (4 h p.i.): 0.00 % i.D./g | Uptake in Muscle (4 h p.i.): 0.00 % i.D./g | Uptake in Blood (24 h p.i.): 0.00 % i.D./g | Uptake in Heart (24 h p.i.): 0.00 % i.D./g | Uptake in Muscle (24 h p.i.): 0.00 % i.D./g | tissue uptake at 1 h (hairless mice, pancreas, read-out: Uptake in Pancreas): 0.58 %ID/g | tissue uptake at 4 h (hairless mice, pancreas, 4 h p.i., read-out: Uptake in Pancreas): 0.62 %ID/g | tissue uptake at 1 h (hairless mice, spleen, read-out: Uptake in Spleen): 0.02 %ID/g | tissue uptake at 4 h (hairless mice, spleen, 4 h p.i., read-out: Uptake in Spleen): 0.01 %ID/g | tissue uptake at 24 h (hairless mice, spleen, 24 h p.i., read-out: Uptake in Spleen): 0.01 %ID/g | tissue uptake at 1 h (hairless mice, stomach, read-out: Uptake in Stomach): 0.14 %ID/g | tissue uptake at 4 h (hairless mice, stomach, 4 h p.i., read-out: Uptake in Stomach): 0.13 %ID/g | tissue uptake at 24 h (hairless mice, stomach, 24 h p.i., read-out: Uptake in Stomach): 0.07 %ID/g | tissue uptake at 24 h (hairless, GLP-1 receptor negative tumor, 24 h p.i., read-out: Uptake in Tumor− (GLP-1 receptor negative tumor)): 0.01 %ID/g | tissue uptake at 1 h (hairless, GLP-1 receptor positive tumor, read-out: Uptake in Tumor+ (GLP-1 receptor positive tumor)): 0.42 %ID/g | tissue uptake at 4 h (hairless, GLP-1 receptor positive tumor, 4 h p.i., read-out: Uptake in Tumor+ (GLP-1 receptor positive tumor)): 0.31 %ID/g | tissue uptake at 24 h (hairless, GLP-1 receptor positive tumor, 24 h p.i., read-out: Uptake in Tumor+ (GLP-1 receptor positive tumor)): 0.2 %ID/g | tissue uptake at 1 h (hairless, blood, read-out: Uptake in Blood): 0.01 %ID/g | tissue uptake at 1 h (hairless, liver, read-out: Uptake in Liver): 0.03 %ID/g | tissue uptake at 4 h (hairless, liver, 4 h p.i., read-out: Uptake in Liver): 0.01 %ID/g | tissue uptake at 24 h (hairless, liver, 24 h p.i., read-out: Uptake in Liver): 0.01 %ID/g | tissue uptake at 1 h (GLP-1 receptor negative tumor, read-out: Uptake in Tumor− (GLP-1 receptor negative tumor)): 0.03 %ID/g | tissue uptake at 4 h (GLP-1 receptor negative tumor, 4 h p.i., read-out: Uptake in Tumor− (GLP-1 receptor negative tumor)): 0.02 %ID/g | tissue uptake at 1 h (bones, read-out: Uptake in Bones): 0.02 %ID/g | tissue uptake at 4 h (bones, 4 h p.i., read-out: Uptake in Bones): 0.01 %ID/g | tissue uptake at 24 h (bones, 24 h p.i., read-out: Uptake in Bones): 0.01 %ID/g | tissue uptake at 1 h (heart, read-out: Uptake in Heart): 0.02 %ID/g | tissue uptake at 4 h (heart, 4 h p.i., read-out: Uptake in Heart): 0.01 %ID/g | tissue uptake at 1 h (intestine, read-out: Uptake in Intestine): 0.12 %ID/g | tissue uptake at 4 h (intestine, 4 h p.i., read-out: Uptake in Intestine): 0.07 %ID/g | tissue uptake at 24 h (intestine, 24 h p.i., read-out: Uptake in Intestine): 0.04 %ID/g | tissue uptake at 1 h (kidneys, read-out: Uptake in Kidneys): 7.9 %ID/g | tissue uptake at 4 h (kidneys, 4 h p.i., read-out: Uptake in Kidneys): 7.41 %ID/g | tissue uptake at 24 h (kidneys, 24 h p.i., read-out: Uptake in Kidneys): 4.85 %ID/g | tissue uptake at 1 h (lungs, read-out: Uptake in Lungs): 0.8 %ID/g | tissue uptake at 4 h (lungs, 4 h p.i., read-out: Uptake in Lungs): 0.36 %ID/g | tissue uptake at 24 h (lungs, 24 h p.i., read-out: Uptake in Lungs): 0.22 %ID/g | tissue uptake at 1 h (muscle, read-out: Uptake in Muscle): 0.01 %ID/g | tissue uptake at 24 h (pancreas, 24 h p.i., read-out: Uptake in Pancreas): 0.37 %ID/g
